Results reported in US7132252B2, “Methods for detecting the interaction of compounds with cytochrome P450 using optical molecular sensors” (Invitrogen Corporation, priority 1998, dated 2006).

Legend:
[1] = biological target: T1, CYP3A4 (Homo sapiens, UniProt P08684); experiment: Rate of hydroxylation of BOM-09B by CYP 3A4; assay type: biochemical
Method: The racemic compound mixture (designated BOM-09B) was tested for activity with cytochrome P450 isozymes. […] The CYP 3A4 assay was performed in a 96-well plate at 37° C. in a volume of 100 μL/well. BOM-09B was diluted from a stock solution of 1 mM in acetonitrile to a 4×concentration of 80 μM in 100 mM K+ phosphate buffer of which 25 μl was added to the appropriate wells. […] The cytochrome P450 isozyme CYP3A4 was diluted to give a 2 pmol enzyme per well. Enzymic conversion of the substrate to products was allowed to proceed for 1 hour with fluorescence reads taken every 4 minutes on a fluorescence microtiter plate reader. The solution was illuminated with an 395/25 nm excitation filter and fluorescence emission was detected through a 460/40 nm the emission filter.

[2] = biological target: T1, CYP3A4; experiment: Kinetic properties of fluorogenic substrates with CYP 3A4; assay type: biochemical; details: for v (1.25 uM): turnover rate at 1.25 uM substrate; for v (10 uM): turnover rate at 10 uM substrate
From the text: For further understanding these terms in the context of this invention, attention is directed to FIG. 4 and the analysis of FIG. 4.
(respectively, MFC and MR).

[3] = biological target: T2, CYP2C19 (Homo sapiens, UniProt P33261); experiment: Kinetic properties of fluorogenic substrates with CYP 2C19; assay type: biochemical; details: for v (1.25 uM): turnover rate at 1.25 uM substrate; for v (1.25 uM) / v (10 uM): — = too low to quantify; for v (10 uM): turnover rate at 10 uM substrate
[4] = biological target: T3, CYP2C9 (Homo sapiens, UniProt P11712); experiment: Kinetic properties of fluorogenic substrates with CYP 2C9; assay type: biochemical; details: for v (1.25 uM): turnover rate at 1.25 uM substrate; for v (1.25 uM) / v (10 uM): — = too low to quantify; for v (10 uM): turnover rate at 10 uM substrate
[5] = biological target: T4, CYP 2B6 (Homo sapiens, UniProt P20813); experiment: Kinetic properties of fluorogenic substrates with CYP 2B6; assay type: biochemical; details: for Km: human, CYP 2B6 isozyme; for Km / v (1.25 uM) / v (10 uM) / kcat: — = too low to quantify; for v (1.25 uM): turnover rate at 1.25 uM substrate; for v (10 uM): turnover rate at 10 uM substrate
T4 sequence (P20813 1-491): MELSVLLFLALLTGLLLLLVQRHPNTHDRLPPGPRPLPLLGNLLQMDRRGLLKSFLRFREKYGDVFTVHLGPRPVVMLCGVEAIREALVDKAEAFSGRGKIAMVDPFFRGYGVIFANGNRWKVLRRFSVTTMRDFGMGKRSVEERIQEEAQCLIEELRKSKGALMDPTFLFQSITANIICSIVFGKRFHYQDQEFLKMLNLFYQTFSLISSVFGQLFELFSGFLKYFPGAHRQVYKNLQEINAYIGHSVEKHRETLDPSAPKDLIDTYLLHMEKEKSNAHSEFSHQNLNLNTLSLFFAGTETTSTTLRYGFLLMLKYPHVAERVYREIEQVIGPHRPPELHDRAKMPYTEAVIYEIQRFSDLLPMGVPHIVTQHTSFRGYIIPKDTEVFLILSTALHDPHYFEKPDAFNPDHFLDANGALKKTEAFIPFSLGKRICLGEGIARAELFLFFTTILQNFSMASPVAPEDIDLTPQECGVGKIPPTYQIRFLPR

[6] = biological target: T1, CYP3A4; experiment: Fluorescence signal from enzymatic metabolism over reagent addition background, CYP3A4; assay type: biochemical; details: BOMR vs benzylresorufin (FIG. 8); BOMCC vs BFC (FIG. 9)
Method: (§1) The assays were performed in a 96-well plate at room temperature and at a volume of 100 μl/well. […] (See Table 11.) The enzyme was made up in the appropriate K+ phosphate buffer at 10× and 10 μl/well was-added to the appropriate wells. (See Table 11.) The plate was read at 3 minute intervals for 12 minutes to obtain a background fluorescence levels. Readings were briefly interrupted to allow for the addition of 10 μl of 10×NADP+ in K+ phosphate buffer to each well. (See Table 11.) The readings were resumed at 3 minute intervals for another 12 minutes. […] To permit quantitative comparison between sensors that were or would be metabolized to yield fluorescent products of differing optical properties, the signal intensity corresponding to each well was normalized by division with the initial signal intensity (wells containing enzyme and buffer). […] The later increase in signal, approximately four minutes after the second addition and at later time points, is believed to be due to the enzymatic conversion of the substrate to the product. […] [table]

[7] = biological target: T3, CYP2C9; experiment: Fluorescence signal from enzymatic metabolism over reagent addition background, CYP2C9; assay type: biochemical; details: OOMR and BOMCC vs MFC (FIG. 11)
Method: as §1

[8] = biological target: T1, CYP3A4; experiment: Kinetics of BOMR and BR toward CYP 3A4 (FIG. 4); assay type: biochemical; details: BOMR versus BR
From the text: Whichever of the four abstractable hydrogen atoms (designated H^1 and H^2 in this representation of BOMR) is removed in the initial reaction step, with reference to Reaction Scheme 1 of FIG. 1, the hydroxylation product will spontaneously decompose to the free resorufin dye. In addition, the benzyloxy group, attached to the carbon carrying the two hydrogens designated H^2, contributes an inductive electronic effect on that carbon, which can stabilize the radical formed during abstraction of one of the H^2 hydrogens by a cytochrome P450.
Optimization of assay conditions was, and is preferably, accomplished through statistically validated Design of Experiments methodologies, using the commercial software package “Design-Expert®” produced by Stat-Ease® Inc. The data shown in FIGS. 4 and 5 were obtained with initial optimization.

[9] = biological target: T5, CYP 1A2 (Homo sapiens, UniProt P05177); experiment: Kinetic properties of fluorogenic substrates with CYP 1A2; assay type: biochemical
T5 sequence (P05177 1-516): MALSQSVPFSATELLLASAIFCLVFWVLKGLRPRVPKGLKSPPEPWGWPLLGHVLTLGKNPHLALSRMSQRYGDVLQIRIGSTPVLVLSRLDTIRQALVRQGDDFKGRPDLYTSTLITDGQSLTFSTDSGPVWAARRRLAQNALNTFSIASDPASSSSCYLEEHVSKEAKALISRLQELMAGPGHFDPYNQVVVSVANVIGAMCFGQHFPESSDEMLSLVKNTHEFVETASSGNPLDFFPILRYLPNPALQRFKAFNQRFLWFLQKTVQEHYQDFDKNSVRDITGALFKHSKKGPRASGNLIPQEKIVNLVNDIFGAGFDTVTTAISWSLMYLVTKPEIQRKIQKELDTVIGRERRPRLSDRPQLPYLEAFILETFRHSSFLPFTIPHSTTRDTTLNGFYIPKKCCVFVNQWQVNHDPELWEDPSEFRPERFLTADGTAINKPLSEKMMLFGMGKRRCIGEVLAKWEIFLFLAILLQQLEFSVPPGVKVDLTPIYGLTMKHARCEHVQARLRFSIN

[10] = biological target: T2, CYP2C19; experiment: Fluorescence signal from enzymatic metabolism over reagent addition background, CYP2C19; assay type: biochemical; details: EOMCC vs CEC (FIG. 12)
Method: as §1

[11] = biological target: T1, CYP3A4; experiment: in vitro; details: pH 8
From the text: Data for a product fluorescence standard calibration curve was generated in the following manner.

[12] = substrate: CCCCCCCCOCOc1ccc2nc3ccc(=O)cc-3oc2c1; experiment: Kinetic properties of fluorogenic substrates with CYP 2C9; assay type: biochemical, human; details: other: — = too low to quantify
[13] = substrate: COCOc1ccc2cc(C#N)c(=O)oc2c1; experiment: as above; assay type: biochemical, human; details: other: — = too low to quantify
[14] = substrate: COc1ccc(COc2ccc3c(C(F)(F)F)cc(=O)oc3c2)cc1; experiment: as above; assay type: biochemical, human; details: other: — = too low to quantify
[15] = substrate: COc1ccc(COc2ccc3nc4ccc(=O)cc-4oc3c2)cc1; experiment: as above; assay type: biochemical, human; details: other: — = too low to quantify
[16] = substrate: COc1ccc2cc(C#N)c(=O)oc2c1; experiment: as above; assay type: biochemical, human; details: other: — = too low to quantify
[17] = substrate: N#Cc1cc2ccc(OCOCc3ccccc3)cc2oc1=O; experiment: as above; assay type: biochemical, human; details: other: — = too low to quantify
[18] = substrate: O=C(O)c1ccccc1-c1c2ccc(=O)cc-2oc2cc(OCOCc3ccccc3)ccc12; experiment: Kinetic properties of substrate BOMF with CYP 2C9 (Tris-HCl buffer); assay type: biochemical, human; details: other: 200 mM Tris-HCl buffer, pH 7.5

T1 sequence (P08684 whole entry): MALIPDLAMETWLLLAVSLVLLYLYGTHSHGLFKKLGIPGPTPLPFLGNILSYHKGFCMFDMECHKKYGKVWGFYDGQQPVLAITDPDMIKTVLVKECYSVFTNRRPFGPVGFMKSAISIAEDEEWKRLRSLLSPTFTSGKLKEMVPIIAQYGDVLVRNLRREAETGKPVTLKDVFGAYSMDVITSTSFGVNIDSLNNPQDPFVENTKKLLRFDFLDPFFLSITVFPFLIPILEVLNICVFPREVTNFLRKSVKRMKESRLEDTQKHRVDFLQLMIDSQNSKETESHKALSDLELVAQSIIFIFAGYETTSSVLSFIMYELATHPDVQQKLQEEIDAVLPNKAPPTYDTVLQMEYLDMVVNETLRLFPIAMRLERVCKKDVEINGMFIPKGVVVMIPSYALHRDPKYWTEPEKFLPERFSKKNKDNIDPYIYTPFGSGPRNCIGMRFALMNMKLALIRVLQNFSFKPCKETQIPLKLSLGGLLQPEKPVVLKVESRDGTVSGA
T2 sequence (P33261 whole entry): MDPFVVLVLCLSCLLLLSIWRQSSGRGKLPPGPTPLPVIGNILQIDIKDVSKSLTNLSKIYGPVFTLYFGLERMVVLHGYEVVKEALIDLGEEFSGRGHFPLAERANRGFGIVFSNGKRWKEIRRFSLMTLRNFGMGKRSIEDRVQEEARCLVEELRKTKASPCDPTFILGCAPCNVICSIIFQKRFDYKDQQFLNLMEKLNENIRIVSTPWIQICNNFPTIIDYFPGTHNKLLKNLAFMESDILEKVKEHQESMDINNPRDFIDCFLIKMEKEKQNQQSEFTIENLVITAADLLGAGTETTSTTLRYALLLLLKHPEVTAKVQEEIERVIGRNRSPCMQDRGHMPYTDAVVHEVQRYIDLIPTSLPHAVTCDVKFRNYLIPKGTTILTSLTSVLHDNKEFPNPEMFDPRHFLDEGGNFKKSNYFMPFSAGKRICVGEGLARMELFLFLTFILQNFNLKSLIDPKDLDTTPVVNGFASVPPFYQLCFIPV

Molecule: NC1CCCCC1NC(=O)c1cc2ccc(OCOCc3ccccc3)cc2oc1=O (racemic) [BOM-09B]
- conversion rate ([1]; 20 μM substrate, 37° C., 2 pmol enzyme per well): 0.75 pmol substrate/pmol enzyme·min
- rate of conversion compared with BOMCC ([1]; identical conditions): half that of BOMCC

Molecule: N#Cc1cc2ccc(OCOCc3ccccc3)cc2oc1=O [BOMCC, 7-Benzyloxymethyloxy-3-cyanocoumarin]
- type of kinetics [2]: sigmoidal
- kcat ([2]; ( ) = from Michaelis-Menten fit, — = too low to quantify): (10.0) min-1
- v (1.25 uM) ([2]; — = too low to quantify): 0.12 min⁻¹
- v (10 uM) ([2]; — = too low to quantify): 0.98 min⁻¹
- type of kinetics [3]: Michaelis-Menten
- v (1.25 uM) [3]: 0.16 min⁻¹
- v (10 uM) [3]: 0.68 min⁻¹
- type of kinetics [4]: Michaelis-Menten
- v (1.25 uM) [4]: 0.04 min⁻¹
- v (10 uM) [4]: 0.42 min⁻¹
- type of kinetics [5]: Michaelis-Menten
- Km [5]: 52 µM
- v (1.25 uM) [5]: 0.38 min⁻¹
- v (10 uM) [5]: 3.05 min⁻¹
- kcat [5]: 66.0 min⁻¹
- signal to background versus prior commercially available substrate [6]: superior signal to background
- signal to background versus prior commercially available substrate [7]: superior signal to background

Molecule: O=c1ccc2nc3ccc(OCOCc4ccccc4)cc3oc-2c1 [BOMR, Benzyloxymethylresorufin]
- type of kinetics [2]: Michaelis-Menten
- v (1.25 uM) ([2]; — = too low to quantify): 0.55 min⁻¹
- v (10 uM) ([2]; — = too low to quantify): 0.88 min⁻¹
- type of kinetics [5]: notMichaelis-Menten
- Km [5]: 0.73 µM
- v (1.25 uM) [5]: 0.28 min⁻¹
- v (10 uM) [5]: 0.71 min⁻¹
- kcat [5]: 0.8 min⁻¹
- CYP 3A4 turnover rate relative to BR [8]: approximately five
- signal to background versus prior commercially available substrate [6]: superior signal to background

Molecule: CCOCOc1ccc2cc(C#N)c(=O)oc2c1 [EOMCC]
- type of kinetics [3]: Michaelis-Menten
- v (1.25 uM) [3]: 0.34 min⁻¹
- v (10 uM) [3]: 2.22 min⁻¹
- type of kinetics [9]: Michaelis-Menten
- v (1.25 uM) ([9]; turnover rate at 1.25 uM substrate): 1.77 min⁻¹
- v (10 uM) ([9]; turnover rate at 10 uM substrate): 9.95 min⁻¹
- signal to background versus prior commercially available substrate [10]: superior signal to background

Molecule: CCCCCCCCOCOc1ccc2nc3ccc(=O)cc-3oc2c1 [OOMR, Octyloxymethylresorufin]
- v (1.25 uM) ([2]; — = too low to quantify): 0.323 min⁻¹
- v (10 uM) ([2]; — = too low to quantify): 0.601 min⁻¹
- v (1.25 uM) [3]: 0.1 min⁻¹
- v (10 uM) [3]: 0.13 min⁻¹
- v (1.25 uM) [4]: 0.137 min⁻¹
- v (10 uM) [4]: 0.31 min⁻¹
- signal to background versus prior commercially available substrate [7]: superior signal to background

Molecule: Clc1ccc(COC(Cn2ccnc2)c2ccc(Cl)cc2Cl)c(Cl)c1 (stereo not drawn) [miconazole]
- inhibition at 1 h, 10 µM [11]: ~100%

B1: CYP 2C9 (Homo sapiens) (protein)
chain: MDSLVVLVLCLSCLLLLSLWRQSSGRGKLPPGPTPLPVIGNILQIGIKDISKSLTNLSKVYGPVFTLYFGLKPIVVLHGYEAVKEALIDLGEEFSGRGIFPLAERANRGFGIVFSNGKKWKEIRRFSLMTLRNFGMGKRSIEDRVQEEARCLVEELRKTKASPCDPTFILGCAPCNVICSIIFHKRFDYKDQQFLNLMEKLNENIKILSSPWIQICNNFSPIIDYFPGTHNKLLKNVAFMKSYILEKVKEHQESMDMNNPQDFIDCFLMKMEKEKHNQPSEFTIESLENTAVDLFGAGTETTSTTLRYALLLLLKHPEVTAKVQEEIERVIGRNRSPCMQDRSHMPYTDAVVHEVQRYIDLLPTSLPHAVTCDIKFRNYLIPKGTTILISLTSVLHDNKEFPNPEMFDPHHFLDEGGNFKKSKYFMPFSAGKRICVGEALAGMELFLFLTSILQNFNLKSLVDPKNLDTTPVVNGFASVPPFYQLCFIPV
- Km [12]: 2.6 µM
- kcat [12]: 0.4 min⁻¹
- kcat/Km [12]: 2564 s⁻¹ M⁻¹
- Km [13]: 20 µM
- kcat/Km [13]: 167 M⁻¹ s⁻¹
- Km [14]: 7.7 µM
- kcat [14]: 0.29 min⁻¹
- kcat/Km [14]: 628 s⁻¹ M⁻¹
- Km [15]: 0.4 µM
- kcat/Km [15]: 952 s⁻¹ M⁻¹
- Km [16]: 70.9 µM
- kcat [16]: 0.00667 s⁻¹
- kcat/Km [16]: 85 M⁻¹ s⁻¹
- Km [17]: 43.0 µM
- kcat [17]: 0.035 s⁻¹
- kcat/Km [17]: 814 M⁻¹ s⁻¹
- Km [18]: 4.5 µM
- kcat [18]: 4.5 min⁻¹
- kcat/Km [18]: 16666 s⁻¹ M⁻¹
